Data as given in a polymer gas permeability compilation.

| SMILES | CH4 permeability | CO2 permeability | H2 permeability | N2 permeability | O2 permeability |
| --- | --- | --- | --- | --- | --- |
| *CC(*)c1ccc([Si](C)(C)C)cc1 (repeat unit) | 34 Barrer | 227 Barrer | 182 Barrer | 16 Barrer | 56 Barrer |
| *c1ccc(Oc2ccc(N3C(=O)c4cc(Oc5ccc(C(C)(C)C)cc5)c(-c5cc6c(cc5Oc5ccc(C(C)(C)C)cc5)C(=O)N(*)C6=O)cc4C3=O)cc2)cc1 (repeat unit) | 3.16 Barrer | 85.6 Barrer | – | 2.95 Barrer | 11.3 Barrer |
| *C(F)(F)C(*)(F)F (repeat unit) | 10 Barrer | 12.7 Barrer | – | – | 4.9 Barrer |
| *c1ccc(-c2nc3cc(-c4ccc5[nH]c(*)nc5c4)ccc3[nH]2)cc1 (repeat unit) | – | – | 0.16 Barrer | – | 0.004 Barrer |
| *Oc1ccc(C(c2ccc(Oc3ccc(S(=O)(=O)c4ccc(*)cc4)cc3)cc2)c2ccccc2C(=O)O)cc1 (repeat unit) | 0.0395 Barrer | 2.25 Barrer | 7.22 Barrer | 0.0437 Barrer | 0.441 Barrer |
| *C=C(*)c1cccc(O[Si](C)(C)C(C)(C)C)c1 (repeat unit) | 12 Barrer | 58 Barrer | 64 Barrer | 7.6 Barrer | 17 Barrer |
| *C(=C(*)c1ccc2c(c1)C(C)(C)c1cc([Si](C)(C)C)ccc1-2)c1ccccc1 (repeat unit) | 10000 Barrer | 18000 Barrer | 8500 Barrer | 3400 Barrer | 5400 Barrer |
| *c1ccc(Sc2ccc(N3C(=O)c4ccc(C(c5ccc6c(c5)C(=O)N(*)C6=O)(C(F)(F)F)C(F)(F)F)cc4C3=O)cc2)cc1 (repeat unit) | 0.66 Barrer | 23.1 Barrer | – | 0.87 Barrer | 4.66 Barrer |
| *CCC[Si](*)(C)C (repeat unit) | 8.4 Barrer | – | – | 3 Barrer | 9.5 Barrer |
| *O[Si](*)(C)C (repeat unit) | 1350 Barrer | 4180 Barrer | 890 Barrer | 351 Barrer | 800 Barrer |
| *N=P(*)(C)c1ccccc1 (repeat unit) | 0.7 Barrer | 6.5 Barrer | – | 0.6 Barrer | 1.8 Barrer |
| *C(=C(*)c1ccc2c(c1)CCC2)c1ccc([Si](C)(C)C)cc1 (repeat unit) | 470 Barrer | 2000 Barrer | 1100 Barrer | 170 Barrer | 450 Barrer |
| */C=C/c1ccc(*)cc1[Si](C)(C)CCCCCCCCCCCCCCCCCC (repeat unit) | – | 61 Barrer | – | 4.5 Barrer | 12 Barrer |
| *Oc1cc2c(cc1O*)C1(CC2(C)C)CC(C)(C)c2cc3c(cc21)Oc1c(C#N)c(*)c(*)c(C#N)c1O3 (repeat unit) | 298 Barrer | 5090 Barrer | 2280 Barrer | 256 Barrer | 913 Barrer |
| *c1ccc(-c2ccc(N3C(=O)c4ccc(C(=O)Oc5ccc(C(c6ccc(OC(=O)c7ccc8c(c7)C(=O)N(*)C8=O)cc6)(C(F)(F)F)C(F)(F)F)cc5)cc4C3=O)cc2)cc1 (repeat unit) | – | – | 5.01 Barrer | 0.0517 Barrer | 0.348 Barrer |
| *O[Si](*)(C)CCC (repeat unit) | 570 Barrer | 2300 Barrer | – | 182 Barrer | 394 Barrer |
| *c1ccc(Oc2ccc(C(c3ccc(Oc4ccc(N5C(=O)c6ccc(C(=O)c7ccc8c(c7)C(=O)N(*)C8=O)cc6C5=O)cc4C(F)(F)F)cc3)(C(F)(F)F)C(F)(F)F)cc2)c(C(F)(F)F)c1 (repeat unit) | 0.189 Barrer | 8.04 Barrer | 24.6 Barrer | 0.37 Barrer | 2.44 Barrer |
| *CC(*)C(=O)OCC (repeat unit) | 14.9 Barrer | 176 Barrer | 60.4 Barrer | 6.46 Barrer | 19 Barrer |

Continued, values first:

| CH4 permeability | CO2 permeability | H2 permeability | N2 permeability | O2 permeability | SMILES |
| --- | --- | --- | --- | --- | --- |
| 0.07 Barrer | 2.91 Barrer | 12.2 Barrer | 0.13 Barrer | 0.6 Barrer | *c1ccc(C(C)(C)c2ccc(-c3nc4cc(-c5ccc6[nH]c(*)nc6c5)ccc4[nH]3)cc2)cc1 (repeat unit) |
| 0.55 Barrer | 12 Barrer | – | 0.67 Barrer | 3.4 Barrer | *Oc1ccc(C(c2ccc(Oc3ccc(S(=O)(=O)c4ccc(*)cc4)cc3)cc2)(C(F)(F)F)C(F)(F)F)cc1 (repeat unit) |
| 0.24 Barrer | 8.4 Barrer | 23 Barrer | 0.4 Barrer | 2.2 Barrer | *Nc1cccc(NC(=O)c2ccc(C(c3ccc(C(*)=O)cc3)(C(F)(F)F)C(F)(F)F)cc2)c1 (repeat unit) |
| 0.331 Barrer | 7.54 Barrer | 13 Barrer | 0.3 Barrer | 1.48 Barrer | *Oc1ccc(C(C)(C)c2ccc(OC(*)=O)cc2)cc1 (repeat unit) |
| 0.581 Barrer | 15.1 Barrer | – | 0.592 Barrer | 3.18 Barrer | *OC(=O)Oc1ccc(C2(c3ccc(*)cc3)c3ccccc3-c3ccccc32)cc1 (repeat unit) |
| 540 Barrer | 2300 Barrer | 1000 Barrer | 210 Barrer | 470 Barrer | *C(=C(*)c1ccc(C(C)(C)C)cc1)c1ccc(O[Si](C)(C)C(C)(C)C)cc1 (repeat unit) |
| 0.89 Barrer | 18.6 Barrer | 32 Barrer | 1.1 Barrer | 5.6 Barrer | *Oc1c(C)cc(C(C)(C)c2cc(C)c(OC(*)=O)c(C)c2)cc1C (repeat unit) |
| 2.74 Barrer | 47.1 Barrer | – | 2.95 Barrer | 11.8 Barrer | *Oc1ccc(C(c2ccc(OC(=O)c3ccc(C(*)=O)cc3)cc2)(C(F)(F)F)C(F)(F)F)cc1 (repeat unit) |
| 0.305 Barrer | 5.16 Barrer | 18.9 Barrer | 0.273 Barrer | 1.64 Barrer | *Oc1ccc(C(C)(C)c2ccc(OC(=O)c3cccc(C(*)=O)c3)c(C(C)C)c2)cc1C(C)C (repeat unit) |
| 0.5 Barrer | 10.8 Barrer | 20.1 Barrer | 0.469 Barrer | 2.39 Barrer | *Oc1ccc(S(=O)(=O)c2ccc(-c3ccc(S(=O)(=O)c4ccc(Oc5ccc(C(C)(C)c6ccc(*)cc6)cc5)cc4)cc3)cc2)cc1 (repeat unit) |
| 0.142 Barrer | 4.93 Barrer | 18.1 Barrer | 0.179 Barrer | 1.29 Barrer | *Oc1c(Br)cc(C(C)(C)c2cc(Br)c(OC(=O)c3cccc(C(*)=O)c3)c(Br)c2)cc1Br (repeat unit) |
| 0.22 Barrer | 4.4 Barrer | 12.4 Barrer | 0.21 Barrer | 1.1 Barrer | *Oc1ccc(C(C)(C)c2ccc(Oc3ccc(C(=O)c4ccc(C(C)(C)c5ccc(C(=O)c6ccc(*)cc6)cc5)cc4)cc3)cc2)cc1 (repeat unit) |
| 0.221 Barrer | 4.65 Barrer | – | 0.217 Barrer | 1.39 Barrer | *Oc1ccc(Oc2ccc(C(=O)c3ccc(*)cc3)cc2)cc1C(C)(C)C (repeat unit) |
